In ChEMBL document CHEMBL4177586, “Small molecule adjuvants that suppress both chromosomal and mcr-1 encoded colistin-resistance and amplify colistin efficacy in polymyxin-susceptible bacteria” (Bioorg Med Chem, 2017):
Values after ≈ are worked out from the molar mass of the structure shown.

Legend:
Klebsiella pneumoniae [1] = test: Potentiation of colistin-induced antimicrobial activity against multidrug resistant Klebsiella pneumoniae BAA2146 assessed as minimum drug concentration needed to cause colsitin MIC of 0.125 ug/ml incubated for overnight duration by CLSI based method; assay type: functional
Klebsiella pneumoniae [2] = test: Potentiation of colistin-induced antimicrobial activity against Klebsiella pneumoniae 2210291 expressing mcr1 gene assessed as reduction in colistin MIC at 30 uM incubated for overnight duration by CLSI based method relative to colistin alone control; assay type: functional
Escherichia coli [3] = test: Potentiation of colistin-induced antimicrobial activity against Escherichia coli YD626 expressing mcr1 gene assessed as colistin MIC at 30 uM incubated for overnight duration by CLSI based method (reference value: 4 ug/ml); assay type: functional
Escherichia coli [4] = test: Potentiation of colistin-induced antimicrobial activity against Escherichia coli ATCC 25922 assessed as colistin MIC at 30 uM incubated for overnight duration by CLSI based method (reference value: […]); assay type: functional
Acinetobacter baumannii [5] = test: Potentiation of colistin-induced antimicrobial activity against Acinetobacter baumannii SM1536 assessed as colistin MIC at 30 uM incubated for overnight duration by CLSI based method (reference value: 2 ug/ml); assay type: functional
Klebsiella pneumoniae [6] = test: Toxicity against Klebsiella pneumoniae 2210291 incubated for overnight duration by CLSI based method; assay type: organism-based; conditions: in vivo
Escherichia coli [7] = test: Potentiation of colistin-induced antimicrobial activity against Escherichia coli ATCC 25922 assessed as reduction in colistin MIC at 30 uM incubated for overnight duration by CLSI based method relative to colistin alone control; assay type: functional
Acinetobacter baumannii [8] = test: Potentiation of colistin-induced antimicrobial activity against Acinetobacter baumannii ATCC 17978 expressing mcr1 gene assessed as reduction in colistin MIC at 30 uM incubated for overnight duration by CLSI based method relative to colistin alone control; assay type: functional
Escherichia coli [9] = test: Potentiation of colistin-induced antimicrobial activity against Escherichia coli YD626 assessed as reduction in colistin MIC at 30 uM incubated for overnight duration by CLSI based method relative to colistin alone control; assay type: functional
Escherichia coli [10] = test: Potentiation of colistin-induced antimicrobial activity against Escherichia coli ATCC 25922 expressing mcr1 gene assessed as colistin MIC at 30 uM incubated for overnight duration by CLSI based method (reference value: 8 ug/ml); assay type: functional
Acinetobacter baumannii [11] = test: Toxicity against Acinetobacter baumannii SM1536 incubated for overnight duration by CLSI based method; assay type: organism-based; conditions: in vivo
Escherichia coli [12] = test: Potentiation of colistin-induced antimicrobial activity against Escherichia coli ATCC 25922 expressing mcr1 gene assessed as colistin MIC at 15 uM incubated for overnight duration by CLSI based method (reference value: 8 ug/ml); assay type: functional
Escherichia coli [13] = test: Potentiation of colistin-induced antimicrobial activity against Escherichia coli YD626 expressing mcr1 gene assessed as reduction in colistin MIC at 30 uM incubated for overnight duration by CLSI based method relative to colistin alone control; assay type: functional
Acinetobacter baumannii [14] = test: Potentiation of colistin-induced antimicrobial activity against Acinetobacter baumannii ATCC 17978 expressing mcr1 gene assessed as colistin MIC at 15 uM incubated for overnight duration by CLSI based method (reference value: 16 ug/ml); assay type: functional
Acinetobacter baumannii [15] = test: Potentiation of colistin-induced antimicrobial activity against multidrug resistant Acinetobacter baumannii BAA1605 assessed as minimum drug concentration needed to cause colsitin MIC of 0.125 ug/ml incubated for overnight duration by CLSI based method; assay type: functional
Klebsiella pneumoniae [16] = test: Toxicity against Klebsiella pneumoniae BAA2146 incubated for overnight duration by CLSI based method; assay type: organism-based; conditions: in vivo
Klebsiella pneumoniae [17] = test: Potentiation of colistin-induced antimicrobial activity against Klebsiella pneumoniae 2210291 assessed as reduction in colistin MIC at 30 uM incubated for overnight duration by CLSI based method relative to colistin alone control; assay type: functional
Escherichia coli [18] = test: Potentiation of colistin-induced antimicrobial activity against Escherichia coli ATCC 25922 expressing mcr1 gene assessed as reduction in colistin MIC at 30 uM incubated for overnight duration by CLSI based method relative to colistin alone control; assay type: functional
Acinetobacter baumannii [19] = test: Potentiation of colistin-induced antimicrobial activity against Acinetobacter baumannii ATCC 17978 expressing mcr1 gene assessed as colistin MIC at 30 uM incubated for overnight duration by CLSI based method (reference value: 16 ug/ml); assay type: functional
Klebsiella pneumoniae [20] = test: Potentiation of colistin-induced antimicrobial activity against Klebsiella pneumoniae 2210291 assessed as colistin MIC at 30 uM incubated for overnight duration by CLSI based method (reference value: 1 ug/ml); assay type: functional
Escherichia coli [21] = test: Potentiation of colistin-induced antimicrobial activity against Escherichia coli ATCC 25922 expressing mcr1 gene assessed as reduction in colistin MIC at 15 uM incubated for overnight duration by CLSI based method relative to colistin alone control; assay type: functional
Escherichia coli [22] = test: Potentiation of colistin-induced antimicrobial activity against Escherichia coli YD626 expressing mcr1 gene assessed as colistin MIC at 15 uM incubated for overnight duration by CLSI based method (reference value: 4 ug/ml); assay type: functional
Escherichia coli [23] = test: Toxicity against Escherichia coli YD626 incubated for overnight duration by CLSI based method; assay type: organism-based; conditions: in vivo
Acinetobacter baumannii [24] = test: Potentiation of colistin-induced antimicrobial activity against Acinetobacter baumannii SM1536 expressing mcr1 gene assessed as colistin MIC at 30 uM incubated for overnight duration by CLSI based method (reference value: 64 ug/ml); assay type: functional
Acinetobacter baumannii [25] = test: Potentiation of colistin-induced antimicrobial activity against Acinetobacter baumannii ATCC 17978 expressing mcr1 gene assessed as reduction in colistin MIC at 15 uM incubated for overnight duration by CLSI based method relative to colistin alone control; assay type: functional
Escherichia coli [26] = test: Potentiation of colistin-induced antimicrobial activity against Escherichia coli YD626 expressing mcr1 gene assessed as reduction in colistin MIC at 15 uM incubated for overnight duration by CLSI based method relative to colistin alone control; assay type: functional
Acinetobacter baumannii [27] = test: Potentiation of colistin-induced antimicrobial activity against Acinetobacter baumannii ATCC 17978 assessed as reduction in colistin MIC at 30 uM incubated for overnight duration by CLSI based method relative to colistin alone control; assay type: functional
Klebsiella pneumoniae [28] = test: Potentiation of colistin-induced antimicrobial activity against Klebsiella pneumoniae 2210291 expressing mcr1 gene assessed as colistin MIC at 15 uM incubated for overnight duration by CLSI based method (reference value: 16 ug/ml); assay type: functional
Acinetobacter baumannii [29] = test: Potentiation of colistin-induced antimicrobial activity against Acinetobacter baumannii SM1536 assessed as reduction in colistin MIC at 30 uM incubated for overnight duration by CLSI based method relative to colistin alone control; assay type: functional
Acinetobacter baumannii [30] = test: Potentiation of colistin-induced antimicrobial activity against Acinetobacter baumannii SM1536 expressing mcr1 gene assessed as reduction in colistin MIC at 15 uM incubated for overnight duration by CLSI based method relative to colistin alone control; assay type: functional
Acinetobacter baumannii [31] = test: Potentiation of colistin-induced antimicrobial activity against Acinetobacter baumannii ATCC 17978 assessed as colistin MIC at 30 uM incubated for overnight duration by CLSI based method (reference value: 2 ug/ml); assay type: functional
Acinetobacter baumannii [32] = test: Potentiation of colistin-induced antimicrobial activity against multidrug resistant Acinetobacter baumannii 5075 assessed as minimum drug concentration needed to cause colsitin MIC of 0.125 ug/ml incubated for overnight duration by CLSI based method; assay type: functional
Escherichia coli [33] = test: Toxicity against Escherichia coli ATCC 25922 incubated for overnight duration by CLSI based method; assay type: organism-based; conditions: in vivo

Compound	MIC (Klebsiella pneumoniae [1])	fold change (FC) (Klebsiella pneumoniae [2])	MIC (Escherichia coli [3])	MIC (Escherichia coli [4])	MIC (Acinetobacter baumannii [5])	MIC (Klebsiella pneumoniae [6])	fold change (FC) (Escherichia coli [7])	fold change (FC) (Acinetobacter baumannii [8])	fold change (FC) (Escherichia coli [9])	MIC (Escherichia coli [10])	MIC (Acinetobacter baumannii [11])	MIC (Escherichia coli [12])	fold change (FC) (Escherichia coli [13])	MIC (Acinetobacter baumannii [14])	MIC (Acinetobacter baumannii [15])	MIC (Klebsiella pneumoniae [16])	fold change (FC) (Klebsiella pneumoniae [17])	fold change (FC) (Escherichia coli [18])	MIC (Acinetobacter baumannii [19])	MIC (Klebsiella pneumoniae [20])	further results
CCCCCCc1ccc(-c2cn(C(C)C)c(N)n2)cc1	20 µM	32	0.016 µg/mL	0.0039 µg/mL	0.016 µg/mL	200 µM (≈ 57.1 µg/mL)	256	32	2048	0.016 µg/mL	200 µM (≈ 57.1 µg/mL)	8 µg/mL	256	4 µg/mL	25 µM	> 200 µM	64	512	0.5 µg/mL	0.031 µg/mL	fold change (FC) (Escherichia coli [21]): 0; MIC (Escherichia coli [22]): 2 µg/mL; MIC (Escherichia coli [23]): 200 µM (≈ 57.1 µg/mL); MIC (Acinetobacter baumannii [24]): 1 µg/mL; fold change (FC) (Acinetobacter baumannii [25]): 4; fold change (FC) (Escherichia coli [26]): 2; fold change (FC) (Acinetobacter baumannii [27]): 128; MIC (Klebsiella pneumoniae [28]): 8 µg/mL; fold change (FC) (Acinetobacter baumannii [29]): 128; fold change (FC) (Acinetobacter baumannii [30]): 4; MIC (Acinetobacter baumannii [31]): 0.016 µg/mL; MIC (Acinetobacter baumannii [32]): 20 µM; MIC (Escherichia coli [33]): 200 µM (≈ 57.1 µg/mL)
CCCCCCc1ccc(-c2cn(CC)c(N)n2)cc1	15 µM	128	< 0.0019 µg/mL	0.00098 µg/mL	0.0078 µg/mL	> 200 µM	2048	32	2048	< 0.0039 µg/mL	100 µM (≈ 27.1 µg/mL)	4 µg/mL	>2048	4 µg/mL	15 µM	> 200 µM	32	>2048	0.5 µg/mL	0.031 µg/mL	fold change (FC) (Escherichia coli [21]): 2; MIC (Escherichia coli [22]): 0.5 µg/mL; MIC (Escherichia coli [23]): 200 µM (≈ 54.3 µg/mL); MIC (Acinetobacter baumannii [24]): 0.25 µg/mL; fold change (FC) (Acinetobacter baumannii [25]): 4; fold change (FC) (Escherichia coli [26]): 8; fold change (FC) (Acinetobacter baumannii [27]): 512; MIC (Klebsiella pneumoniae [28]): 4 µg/mL; fold change (FC) (Acinetobacter baumannii [29]): 256; fold change (FC) (Acinetobacter baumannii [30]): 8; MIC (Acinetobacter baumannii [31]): 0.0039 µg/mL; MIC (Acinetobacter baumannii [32]): 15 µM; MIC (Escherichia coli [33]): 200 µM (≈ 54.3 µg/mL)
CCCCCc1ccc(C(=O)NCCn2cc(CCCCCc3cnc(N)n3Cc3ccc(CCCC)cc3)nn2)cc1	10 µM	64	< 0.002 µg/mL	< 0.00049 µg/mL	< 0.00098 µg/mL	> 200 µM	>2048	32	>2048	0.25 µg/mL	> 200 µM	0.5 µg/mL	>2048	2 µg/mL	5 µM	> 200 µM	64	32	0.5 µg/mL	0.016 µg/mL	fold change (FC) (Escherichia coli [21]): 16; MIC (Escherichia coli [22]): 0.063 µg/mL; MIC (Escherichia coli [23]): > 200 µM; MIC (Acinetobacter baumannii [24]): 2 µg/mL; fold change (FC) (Acinetobacter baumannii [25]): 8; fold change (FC) (Escherichia coli [26]): 64; fold change (FC) (Acinetobacter baumannii [27]): >2048; MIC (Klebsiella pneumoniae [28]): 1 µg/mL; fold change (FC) (Acinetobacter baumannii [29]): >2048; fold change (FC) (Acinetobacter baumannii [30]): 8; MIC (Acinetobacter baumannii [31]): < 0.00098 µg/mL; MIC (Acinetobacter baumannii [32]): 10 µM; MIC (Escherichia coli [33]): > 200 µM
